Reference: US6870154B1, “Capillary mixer with adjustable reaction chamber volume for mass spectrometry” (The University of Western Ontario, priority 2004, dated 2005)

Columns and labels:
[1] = demetalation of chlorophyll a in acidic methanol, kinetic mode ESI-MS; type: physicochemical; details: HCl, quadratic fit
Method: (§1) For demetalation experiments, syringe 1 contained 40 μM chlorophyll in methanol and syringe 2 contained HCl in methanol at concentrations ranging from 30 to 100 mM. Both syringes were advanced at 30 μL/min for a total flow rate 60 μL/min in the reaction capillary. Ubiquitin refolding studies were carried out by having syringe 1 filled with 20 μM protein in 46% water, 50% methanol, and 4% acetic acid. Syringe 2 contained water. The two syringes were advanced at 20 and 50 μL/min, respectively, for a total flow rate of 70 μL/min. Final solution conditions after mixing ere 14.3% methanol and 1.1% acetic acid.
On-Line Kinetic ESI-MS Measurements. These measurements were carried out using a custom-built continuous-flow mixing apparatus that is based on two concentric capillaries (FIG. 1).
Instrument Performance in Kinetic Mode. […]
The apparatus depicted in FIG. 1 was used for monitoring the kinetics of chlorophyll demetalation in methanol solution for acid concentrations ranging from 15 to 50 mM. […] Nevertheless, it is clear that the temporal resolution of our novel mixing device exceeds that of other on-line ESI-MS techniques, which so far allowed rate constants up to ˜25 s^−1 to be measured.^16

[2] = demetalation of chlorophyll a in acidic methanol, optical stopped-flow spectroscopy; type: physicochemical; details: 664 nm, quadratic fit
Method: (§2) Optical Stopped-Flow Measurements. These measurements were performed on an SFM-4 instrument (Bio-Logic, Claix, France), using an observation wavelength of 664 nm for monitoring the demetalation of chlorophyll. The two stepper motor-driven syringes used were advanced at 3.5 mL/s each, for an instrument dead time of 3.3 ms. All experiments were carried out at room temperature (22±1° C.).
Instrument Performance in Kinetic Mode. The demetalation of chlorophyll a in acidic solution is a well-characterized process, during which the central magnesium of the porphyrin is displaced by two protons.^40-42 This reaction represents a convenient test system, because it allows kinetic measurements by ESI-MS and by standard optical stopped-flow absorption spectroscopy. When studied under pseudo-first-order conditions, the rate constant of the reaction is given by kobs=k[H^+]^2. The intrinsic rate constant k in this expression is known to be strongly solvent-dependent.^41, 42

[3] = target: T1, α-chymotrypsin (Bos taurus, UniProt P00766); assay: pre-steady-state hydrolysis of p-NPA by chymotrypsin, on-line kinetic ESI-MS; type: biochemical; details: fit of kobs to Equation 12, pH 7.8, 20% methanol, 22 °C
T1 construct: Peaks labeled with α and δ′ correspond to α- and δ′-chymotrypsin, respectively; purchased Sigma (St. Louis, Mo.)
From the text: (§3) Chymotrypsin is a member of the serine protease family. ^86-88 Ser195 represents the reactive nucleophile in the active site of this enzyme. Although the physiological role of chymotrypsin is to serve as an endopeptidase, it also catalyzes the hydrolysis of esters, including numerous synthetic substrate analogs. […] Subsequently, Ser195 forms a covalent bond with the carbonyl carbon of the substrate, thus releasing the first hydrolysis product P1. The rate constant of this acylation step is denoted as k2. The subsequent de-acylation has a rate constant of k3, and it leads to regeneration of the free enzyme by hydrolysis of the Ser195-ester bond, through release of the second hydrolysis product P2. For conditions where S is present in large excess, it can be shown that the concentration of P1 as a function of time t in the pre-steady-state regime is given by Equation 9^58, 59: [P1](t)=C1(1−exp(−kobst))+C2t (9) and the concentration-time profile of the covalent EP2 complex can be expressed as Equation 10: [EP2](t)=C3(1−exp(−kobst)) (10). Consequently, the sum of the concentrations of free enzyme and ES complex are given by Equation 11: ([Efree]+[ES](t)=C4exp(−kobst)+C5 (11). C1, . . . , C5 in these expressions are constants, and kobs is given by Equation 12: [formula] where [S] is the substrate concentration. Measurements of kobs as a function of substrate concentration allow the determination of the parameters k2, k3, and Kd in Scheme 8.
(§4) On-line kinetic ESI-MS experiments. ESI-MS-based kinetic experiments were carried out on a custom built continuous flow mixing apparatus described in FIG. 2. Briefly, this setup consists of two concentric capillaries, that are connected to sample injection syringes. Reactions are initiated by mixing of two solutions at the outlet of the inner capillary. The reaction time is determined by the solution flow rate, and by the distance between the mixing region and the end of the outer capillary. For experiments in kinetic mode, the inner capillary is steadily withdrawn from the end of the outer capillary, while the mass spectrometer is set to monitor selected m/z values, corresponding to specific solution-phase species, as a function of time. In spectral mode, the inner capillary is set at specific distances from the end of the outer capillary, such that entire mass spectra can be obtained for selected reaction times.
(§5) For the experiments described here, both reactant solutions were introduced into the apparatus at 20 μL/min using syringe pumps (Harvard Apparatus, Saint Laurent, QC) for a total flow rate of 40 μL/min after the mixer. […]

[4] = target: T2, δ′-chymotrypsin (Bos taurus, UniProt P00766); assay: as above; type: biochemical; details: fit of kobs to Equation 12, pH 7.8, 20% methanol, 22 °C
T2 construct: Peaks labeled with α and δ′ correspond to α- and δ′-chymotrypsin, respectively; purchased Sigma (St. Louis, Mo.)
From the text: as §3, §4, §5

[5] = target: T3, chymotrypsin (a mixture of the α form and δ′ forms) (Bos taurus, UniProt P00766); assay: p-NPA hydrolysis by optical stopped-flow spectroscopy (release of p-NP); type: biochemical; details: weighted average of α and δ′-chymotrypsin
T3 construct: Chymotrypsin (a mixture of the α form and δ′ forms); purchased Sigma (St. Louis, Mo.)
Method: as §2
Enzymatic reactions. The limited solubility of p-NPA in purely aqueous solutions necessitated the use of 20% (v/v) methanol in the reaction mixture. […] These solutions were mixed in a 1:1 ratio with 32 μM chymotrypsin in water for a final pH of 7.8, which corresponds to the pH optimum of the enzyme. […] Experiments on bradykinin were carried out in an analogous manner, but in purely aqueous solution, and by using 20% (v/v) acetic acid in water as makeup solvent. […] Substrate concentrations given below represent the values in the reaction mixture, i.e., after the first mixing step. […]
Measurements of kobs as a function of substrate concentration were also carried out by stopped-flow spectroscopy, using the release of the yellow p-NP moiety as optical probe. In contrast to the ESI-MS experiments, these optical studies cannot discern the two forms of the enzyme, and therefore the measured data represent a weighted average of the substrate conversion caused by a and δ′-chymotrypsin. […]

[6] = target: T4, chymotrypsin (Bos taurus, UniProt P00766); details: previously reported, cited from earlier work
T4 construct: Chymotrypsin (a mixture of the α form and δ′ forms); purchased Sigma (St. Louis, Mo.)

[7] = refolding of ubiquitin from the A state, kinetic mode ESI-MS
Method: as §1
The A state was populated by exposing the protein to 50% methanol and 4% acetic acid; refolding was initiated by mixing with an excess volume of water. ESI mass spectra of ubiquitin for different times after initiation of refolding are depicted in FIG. 7. […] This spectrum is practically indistinguishable from that of the protein prior to initiation of refolding (data not shown) and very similar to ubiquitin A state spectra that have been published previously.^14, 51 As refolding proceeds, the relative abundance of highly charged protein ions decreases and that of the […] and 7+ ions increases (FIGS. 7B,C). The final spectrum was recorded off-line 5 min after initiation of refolding in a manual mixing experiment.
The diffusion coefficient of ubiquitin can be estimated to be around D=1×10^−10 m^2/s.^52 According to condition 7, this implies that diffusion effects on the observed kinetics are negligible in an experimental time window up to τ≈2 s. The data can therefore be fitted based on eq 5 (solid lines in FIG. 8). C(τ) expressions for the 13+ and 12+ions were generated by assuming the model function C(t)=a1 exp(−kobst)+a0, whereas the analysis of the 8+ and 7+ ions was based on C(t)=b1(1−exp(−kobst))+b0. […] Instead, the kinetic profiles level off at ˜20% of their initial values. This effect can be attributed to a subpopulation of slow-folding ubiquitin molecules that contain non-native cis-proline isomers.^53 Proline isomerization, taking place on the order of tens of seconds, 54 is the rate-limiting step for the refolding of this subpopulation. […] Processes occurring on such a slow time scale are beyond the range accessible by our rapid mixing setup.

[8] = read-out: dissociation constant Kd
[9] = much higher buffer concentrations

With `C=Cc1c(C)c2cc3nc(c4c5[n-]c(cc6nc(cc1[n-]2)C(C)=C6CC)c(C)c5C(=O)[C@@H]4C(=O)OC)[C@@H](CCC(=O)OC/C=C(\C)CCC[C@H](C)CCC[C@H](C)CCCC(C)C)[C@@H]3C.[Mg+2]` [chlorophyll a, Chlorophyll a] the “intrinsic rate constant k of demetalation (kobs=k[H+]^2)” value [1] was 0.048±0.002 mM^−2s^−1 and the “intrinsic rate constant k of demetalation” value [2] was 0.050±0.001 mM^−2 s^−1.

With `CC(=O)Oc1ccc([N+](=O)[O-])cc1` [p-NPA, para-nitrophenyl acetate] the “k2 (acylation rate constant)” value [3] was 3.2 ± 0.3 s⁻¹, the Kd [3, 8] was 1.4 ± 0.2 mM and the “k2 (acylation rate constant)” value [4] was 3.7 ± 0.3 s⁻¹. For the same compound, the Kd [4, 8] was 1.7 ± 0.2 mM, the Kd [5] was 1.6 ± 0.1 mM and the k2 [5] was 3.6 ± 0.2 s⁻¹. For the same compound, the Kd [6, 9] was 7 mM, the k2 [6, 9] was 3 s⁻¹ and the k3 [6] was 0.03 s⁻¹.

Compound ubiquitin has a refolding kobs ([7]; 8+ ion, 14.3% methanol, 1.1% acetic acid) of 5.3 s⁻¹, a refolding kobs ([7]; 9+ ion) of 5.3 s⁻¹ and a refolding kobs ([7]; 12+ ion) of 5.2 s⁻¹. The refolding kobs ([7]; 13+ ion) was 5.1 s⁻¹ and the “refolding kobs, average value” ([7]; average of the four fits) was 5.2 s⁻¹.
